Experimental data taken from patent publication US12252488B2 (Nimbus Saturn, Inc., priority 2021, dated 2025).

Biological target: T1, HPK1 (Homo sapiens, UniProt Q92918)
T1 construct: purchased Invitrogen
Assay: HPK1 biochemical enzyme assay (microfluidic mobility shift assay)
Details: 1000 uM (1 mM) ATP; Caliper mobility shift; 1.5 nM HPK1; 30 min preincubation; read-out: HPK1 1000UMATP caliper IC50
Summary of the method: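 IC50 values, grouped into activity categories, come from 10-point titrations (top final 3 μM) preincubated 30 min with 1.5 nM enzyme and substrate at pH 7.4. ATP (1 mM), substrate (1 μM) and MgCl2 (5 mM) then added; after 60 min at RT, product separated by microfluidic mobility shift.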

T1 sequence (Q92918 whole entry): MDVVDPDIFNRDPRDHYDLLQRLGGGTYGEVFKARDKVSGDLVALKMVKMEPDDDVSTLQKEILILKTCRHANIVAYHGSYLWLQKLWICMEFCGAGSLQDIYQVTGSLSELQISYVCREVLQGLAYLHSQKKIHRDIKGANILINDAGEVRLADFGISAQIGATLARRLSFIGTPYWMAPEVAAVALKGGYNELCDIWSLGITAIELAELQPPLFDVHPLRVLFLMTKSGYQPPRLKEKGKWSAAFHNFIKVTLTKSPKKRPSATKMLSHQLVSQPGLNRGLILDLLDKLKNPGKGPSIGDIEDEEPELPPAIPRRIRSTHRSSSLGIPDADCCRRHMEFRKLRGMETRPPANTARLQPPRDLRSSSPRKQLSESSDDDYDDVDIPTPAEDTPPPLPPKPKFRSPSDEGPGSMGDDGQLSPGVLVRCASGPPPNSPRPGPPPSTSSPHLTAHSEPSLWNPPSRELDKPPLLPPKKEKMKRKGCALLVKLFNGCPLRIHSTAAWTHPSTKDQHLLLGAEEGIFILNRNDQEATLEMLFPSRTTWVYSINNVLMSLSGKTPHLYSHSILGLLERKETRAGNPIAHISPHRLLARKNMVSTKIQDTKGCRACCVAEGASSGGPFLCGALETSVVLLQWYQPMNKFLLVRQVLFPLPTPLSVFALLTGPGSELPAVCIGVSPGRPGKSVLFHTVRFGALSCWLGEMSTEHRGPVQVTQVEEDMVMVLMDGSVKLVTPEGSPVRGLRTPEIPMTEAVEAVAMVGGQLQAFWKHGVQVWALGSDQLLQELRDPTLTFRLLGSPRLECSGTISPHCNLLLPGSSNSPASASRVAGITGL

Compound | IC50 [nM]
Cc1cc(-c2cc(Nc3ccc(N4CCNCC4)cn3)c3c(=O)[nH]ccc3n2)c(F)cc1NC(=O)C1CCCCC1 [I-197, N-[5-fluoro-2-methyl-4-[5-oxo-4-[(5-piperazin-1-yl-2-pyridyl)amino]-6H-1,6-naphthyridin-2-yl]phenyl] cyclohexane carboxamide] | 100 to 1000
COc1cc(-c2cc(Nc3ccc(C4CC4)cn3)c3c(=O)[nH]ccc3n2)c(F)cc1C(=O)N1CCCCC1 [I-198, 4-[(5-cyclopropyl-2-pyridyl)amino]-2-[2-fluoro-5-methoxy-4-(piperidine-1-carbonyl)phenyl]-6H-1,6-naphthyridin-5-one] | 100 to 1000
COc1cc(-c2cc(Nc3cnn(C)c3)c3c(=O)[nH]ccc3n2)c(F)cc1C(=O)N1CCCCC1 [I-199, 2-[2-fluoro-5-methoxy-4-(piperidine-1-carbonyl)phenyl]-4-[(1-methyl-pyrazol-4-yl)amino]-6H-1,6-naphthyridin-5-one] | 100 to 1000
COc1cc(-c2cc(Nc3ccc(N4CCNCC4)cn3)c3c(=O)[nH]ccc3n2)c(F)cc1NC(=O)C1CCCCC1 [I-208, N-[5-fluoro-2-methoxy-4-[5-oxo-4-[(5-piperazin-1-yl-2-pyridyl)amino]-6H-1,6-naphthyridin-2-yl]phenyl] cyclohexane carboxamide] | 100 to 1000
COc1cc(-c2cc(Nc3ccc(N4CCC(OC)CC4)cn3)c3c(=O)[nH]ccc3n2)c(F)cc1C(=O)N1CCCCC1 [I-209, 2-[2-fluoro-5-methoxy-4-(piperidine-1-carbonyl)phenyl]-4-[[5-(4-methoxy-1-piperidyl)-2-pyridyl]amino]-6H-1,6-naphthyridin-5-one] | 100 to 1000
CC1(C(=O)Nc2ccc(-c3cc(Nc4ccc(N5CCC(O)CC5)cn4)c4c(=O)[nH]ccc4n3)c(F)c2)CCC1 [I-211, N-[3-fluoro-4-[4-[[5-(4-hydroxy-1-piperidyl)-2-pyridyl]amino]-5-oxo-6H-1,6-naphthyridin-2-yl]phenyl]-1-methyl-cyclobutane-carboxamide] | > 1000
O=C(Nc1ccc(-c2cc(Nc3ccc(C4CC4)cn3)c3c(=O)[nH]ccc3n2)c(F)c1)C1CCCCC1 [I-212, N-[4-[4-[(5-cyclopropyl-2-pyridyl)amino]-5-oxo-6H-1,6-naphthyridin-2-yl]-3-fluoro-phenyl] cyclohexane-carboxamide] | 100 to 1000
CN1C(=O)Cc2cc(-c3cc(Nc4ccc(N5CCC(O)CC5)cn4)c4c(=O)[nH]ccc4n3)cnc21 [I-213, 4-[[5-(4-hydroxy-1-piperidyl)-2-pyridyl]amino]-2-(1-methyl-2-oxo-3H-pyrrolo[2,3-b]pyridin-5-yl)-6H-1,6-naphthyridin-5-one] | 100 to 1000
CN(C(=O)C1(C)CC1)c1ccc(-c2cc(Nc3ccc(N4CCC(O)CC4)cn3)c3c(=O)[nH]ccc3n2)c(F)c1 [I-214, N-[3-fluoro-4-[4-[[5-(4-hydroxy-1-piperidyl)-2-pyridyl]amino]-5-oxo-6H-1,6-naphthyridin-2-yl]phenyl]-N,1-dimethyl-cyclopropane-carboxamide] | 100 to 1000
COc1cc(-c2cc(Nc3ccc(N4CCC(O)CC4)cn3)c3c(=O)[nH]ccc3n2)c(F)cc1CN(C)C [I-215, 2-(4-((Dimethylamino)methyl)-2-fluoro-5-methoxyphenyl)-4-((5-(4-hydroxypiperidin-1-yl)pyridin-2-yl)amino)-1,6-naphthyridin-5(6H)-one] | 100 to 1000
COc1cc(-c2cc(Nc3ccc(N4CCC(O)CC4)cn3)c3c(=O)[nH]ccc3n2)c(F)cc1CN1CCCCC1 [I-216, 2-[2-fluoro-5-methoxy-4-(1-piperidyl-methyl)phenyl]-4-[[5-(4-hydroxy-1-piperidyl)-2-pyridyl]amino]-6H-1,6-naphthyridin-5-one] | > 1000
CNCc1ccc(F)c(-c2cc(Nc3ccc(N4CCC(O)CC4)cn3)c3c(=O)[nH]ccc3n2)c1 [I-217, 2-[2-fluoro-5-(methyl-amino-methyl)phenyl]-4-[[5-(4-hydroxy-1-piperidyl)-2-pyridyl]amino]-6H-1,6-naphthyridin-5-one] | 100 to 1000
CC1(C(=O)Nc2ccc(-c3cc(Nc4ccc(N5CCNCC5)cn4)c4c(=O)[nH]ccc4n3)c(F)c2)CCC1 [I-219, N-[3-fluoro-4-[5-oxo-4-[(5-piperazin-1-yl-2-pyridyl)amino]-6H-1,6-naphthyridin-2-yl]phenyl]-1-methyl-cyclobutane-carboxamide] | ≤ 100
O=c1[nH]ccc2nc(-c3c(F)ccc4c3CCNC4)cc(Nc3ccc(N4CCC(O)CC4)cn3)c12 [I-220, 2-(6-fluoro-1,2,3,4-tetrahydro-isoquinolin-5-yl)-4-[[5-(4-hydroxy-1-piperidyl)-2-pyridyl]amino]-6H-1,6-naphthyridin-5-one] | ≤ 100
CNC1(c2ccc(F)c(-c3cc(Nc4ccc(N5CCC(O)CC5)cn4)c4c(=O)[nH]ccc4n3)c2)CC1 [I-221, 2-[2-fluoro-5-[1-(methyl-amino)cyclopropyl]phenyl]-4-[[5-(4-hydroxy-1-piperidyl)-2-pyridyl]amino]-6H-1,6-naphthyridin-5-one] | 100 to 1000
O=C(Nc1ccc(-c2cc(Nc3ccc(N4CCC(O)CC4)cn3)c3c(=O)[nH]ccc3n2)c(F)c1)C1(C(F)F)CC1 [I-222] | ≤ 100
CCC1(C(=O)Nc2ccc(-c3cc(Nc4ccc(N5CCC(O)CC5)cn4)c4c(=O)[nH]ccc4n3)c(F)c2)CC1 [I-223, 1-ethyl-N-[3-fluoro-4-[4-[[5-(4-hydroxy-1-piperidyl)-2-pyridyl]amino]-5-oxo-6H-1,6-naphthyridin-2-yl]phenyl] cyclopropane-carboxamide] | ≤ 100
CNC1CCCc2c1ccc(F)c2-c1cc(Nc2ccc(N3CCC(O)CC3)cn2)c2c(=O)[nH]ccc2n1 (stereo not shown) [I-224, 2-[6-fluoro-1-(methyl-amino)tetralin-5-yl]-4-[[5-(4-hydroxy-1-piperidyl)-2-pyridyl]amino]-6H-1,6-naphthyridin-5-one] | 100 to 1000
COc1cc(-c2cc(Nc3cc(C4CCOC4)[nH]n3)c3c(=O)[nH]ccc3n2)c(F)cc1C(=O)N1CCCCC1 (stereo not shown) [I-225, 2-[2-fluoro-5-methoxy-4-(piperidine-1-carbonyl)phenyl]-4-[(5-THF-3-yl-1H-pyrazol-3-yl)amino]-6H-1,6-naphthyridin-5-one] | > 1000
O=C1Cc2cc(-c3cc(Nc4ccc(N5CCC(O)CC5)cn4)c4c(=O)[nH]ccc4n3)cnc2N1 [I-226, 4-[[5-(4-hydroxy-1-piperidyl)-2-pyridyl]amino]-2-(2-oxo-1,3-dihydro-pyrrolo[2,3-b]pyridin-5-yl)-6H-1,6-naphthyridin-5-one] | ≤ 100
CN1CCN(c2ccc(Nc3cc(-c4cnc5c(c4)CC(=O)N5)nc4cc[nH]c(=O)c34)nc2)CC1 [I-227, 4-[[5-(4-methyl-piperazin-1-yl)-2-pyridyl]amino]-2-(2-oxo-1,3-dihydro-pyrrolo[2,3-b]pyridin-5-yl)-6H-1,6-naphthyridin-5-one] | ≤ 100

Other lines, results leading:

IC50 [nM] | Compound
≤ 100 | CNC1CCc2cc(F)c(-c3cc(Nc4ccc(N5CCC(O)CC5)cn4)c4c(=O)[nH]ccc4n3)cc21 (stereo not shown) [I-200, 2-[6-fluoro-3-(methyl-amino)indan-5-yl]-4-[[5-(4-hydroxy-1-piperidyl)-2-pyridyl]amino]-6H-1,6-naphthyridin-5-one]
≤ 100 | O=C(Nc1ccc(-c2cc(Nc3ccc(N4CC(F)(F)C4)cn3)c3c(=O)[nH]ccc3n2)c(F)c1)C1CCCCC1 [I-201, N-[4-[4-[[5-(3,3-difluoro-azetidin-1-yl)-2-pyridyl]amino]-5-oxo-6H-1,6-naphthyridin-2-yl]-3-fluoro-phenyl] cyclohexane-carboxamide]
≤ 100 | COc1cc(F)c(-c2cc(Nc3ccc(N4CCC(O)CC4)cn3)c3c(=O)[nH]ccc3n2)cc1CN1CCCCC1 [I-202, 2-[2-fluoro-4-methoxy-5-(1-piperidyl-methyl)phenyl]-4-[[5-(4-hydroxy-1-piperidyl)-1-2-pyridyl]amino]-6H-1,6-naphthyridin 5-one]
≤ 100 | O=c1[nH]ccc2nc(-c3ccc4c(c3F)CCC4O)cc(Nc3ccc(N4CCC(O)CC4)cn3)c12 (stereo not shown) [I-203, 2-(4-fluoro-1-hydroxy-indan-5-yl)-4-[[5-(4-hydroxy-1-piperidyl)-2-pyridyl]amino]-6H-1,6-naphthyridin-5-one]
≤ 100 | COC1CCN(c2ccc(Nc3cc(-c4ccc(NC(=O)C5CCCCC5)cc4F)nc4cc[nH]c(=O)c34)nc2)CC1 [I-204, N-[3-fluoro-4-[4-[[5-(4-methoxy-1-piperidyl)-2-pyridyl]amino]-5-oxo-6H-1,6-naphthyridin-2-yl]phenyl] cyclohexane carboxamide]
≤ 100 | CC1(C(=O)Nc2ccc(-c3cc(Nc4ccc(N5CCC(O)CC5)cn4)c4c(=O)[nH]ccc4n3)c(F)c2)COC1 [I-205]
≤ 100 | COc1cc(-c2cc(Nc3ccc(N4CCC(O)CC4)cn3)c3c(=O)[nH]ccc3n2)c(F)cc1C(=O)N1CCCC1 [I-206, 2-[2-fluoro-5-methoxy-4-(pyrrolidine-1-carbonyl)phenyl]-4-[[5-(4-hydroxy-1-piperidyl)-2-pyridyl]amino]-6H-naphthyridin-5-one]
≤ 100 | O=C(Nc1ccc(-c2cc(Nc3ccc(N4C[C@H]5COC[C@H]5C4)cn3)c3c(=O)[nH]ccc3n2)c(F)c1)C1CCCCC1 [I-207, N-[4-[4-[[5-[(3aR,6aS)-1,3,3a,4,6,6a-hexahydro-furo[3,4-c]pyrrol-5-yl]-2-pyridyl]amino]-5-oxo-6H-1,6-naphthyridin-2-yl]-3-fluoro-phenyl] cyclohexane-carboxamide]
≤ 100 | CN(C(=O)C1(C)COC1)c1ccc(-c2cc(Nc3ccc(N4CCC(O)CC4)cn3)c3c(=O)[nH]ccc3n2)c(F)c1 [I-210, N-[3-fluoro-4-[4-[[5-(4-hydroxy-1-piperidyl)-2-pyridyl]amino]-5-oxo-6H-1,6-naphthyridin-2-yl]phenyl]-N,3-dimethyl-oxetane-3-carboxamide]
≤ 100 | CNCc1ccc(-c2cc(Nc3ccc(N4CCC(O)CC4)cn3)c3c(=O)[nH]ccc3n2)c(F)c1 [I-218, 2-[2-fluoro-4-(methyl-amino-methyl)phenyl]-4-[[5-(4-hydroxy-1-piperidyl)-2-pyridyl]amino]-6H-naphthyridin-5-one]
